How the values were obtained:
PTZ-induced seizures = PTZ-induced seizures in mice; format: in vivo; settings: PTZ 85 mg/kg s.c.; for seizure occurrence: all control mice seized; for latency to seizure onset prolonged by / number of seizures reduced by: vs control
Protocol: The latency of seizure onset, number of seizures, and mortality rate was recorded for the picrotoxin-injected mice. For the PTZ-injected mice, we recorded the latency of seizure onset, number of seizures, and presence of clonic seizures.

A1 adenosine receptor = target: T1, A1 adenosine receptor (Rattus norvegicus, UniProt P25099); experiment: Radioligand binding, [3H]DPCPX displacement in rat cortical membranes; settings: 0.2 nM [3H]DPCPX
T1 construct: from tissue; host or cells: cerebral cortex of male Wistar rats
T1 sequence (P25099 1-326): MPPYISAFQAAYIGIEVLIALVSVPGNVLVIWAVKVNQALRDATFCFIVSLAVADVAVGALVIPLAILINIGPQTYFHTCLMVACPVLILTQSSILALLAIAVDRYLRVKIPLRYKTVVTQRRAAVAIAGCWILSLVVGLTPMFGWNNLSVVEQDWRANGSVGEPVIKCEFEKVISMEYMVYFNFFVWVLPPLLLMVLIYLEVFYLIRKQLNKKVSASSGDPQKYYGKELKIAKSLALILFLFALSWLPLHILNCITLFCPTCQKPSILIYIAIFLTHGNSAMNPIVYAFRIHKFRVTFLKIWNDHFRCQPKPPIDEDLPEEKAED

[1] = target: T2, recombinant human adenosine A1 receptor (Homo sapiens, UniProt P30542); experiment: cAMP accumulation assay in CHO cells expressing A1 receptor; format: cell-based; settings: CHO cells stably expressing human A1 receptor; forskolin-stimulated cAMP; read-out: EC50, decrease of cellular cAMP level
T2 construct: expressed in transfected cells; host or cells: CHO cells (provided by Professor R. B. Su)
T2 sequence (P30542 1-326): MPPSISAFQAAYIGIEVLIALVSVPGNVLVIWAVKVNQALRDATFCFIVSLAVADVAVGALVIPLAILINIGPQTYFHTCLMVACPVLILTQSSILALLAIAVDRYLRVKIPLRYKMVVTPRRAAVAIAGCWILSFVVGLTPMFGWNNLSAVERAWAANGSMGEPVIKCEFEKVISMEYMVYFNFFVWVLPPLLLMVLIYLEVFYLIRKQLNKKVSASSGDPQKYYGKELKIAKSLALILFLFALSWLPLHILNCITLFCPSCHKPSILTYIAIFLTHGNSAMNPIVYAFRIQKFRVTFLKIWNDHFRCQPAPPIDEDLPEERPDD
Protocol: Chinese hamster ovary (CHO) cells expressing recombinant human A1/A2A receptors (provided by Professor R. B. Su of the Institute of Pharmacology and Toxicology, Academy of Military Medical Sciences, Beijing, China) were cultured in Dulbecco’s Modified Eagles Medium with the F12 nutrient mixture (DMEM/F12) containing no nucleosides, and with 10% fetal calf serum, penicillin (100 U/ml), streptomycin (100 µg/ml), L-glutamine (2 mM), and Geneticin at 37°C in a 5% CO2/95% atmosphere. The cells used to determine cAMP levels had viability >95%, as assessed by trypan blue exclusion.
Intracellular cyclic adenosine monophosphate (cAMP) levels were measured using a competitive protein binding method. To measure A1/A2A receptor-mediated accumulation of cAMP, cells were grown as confluent monolayers in 24-well cluster dishes. The cells were washed twice with 2 mL of medium containing 20 mM HEPES that had been prewarmed to 37°C, pH 7.4. The cells were then preincubated for 15 min in 0.4 mL fresh medium containing 30 µM of the cAMP phosphodiesterase inhibitor rolipram. B2 was added in 0.1 mL of medium and incubations continued for 15 min. The reaction was then terminated by removing the supernatant, and cells were lysed with the addition of 500 µl of 0.1 M ice-cold HCl. The cell lysate was centrifuged (4,000×g) at 4°C for 10 min. […] Bound radioactivity was measured by liquid scintillation spectrometry.

[2] = test system: c-Fos expression in the hippocampus; experiment: PTZ-induced c-Fos expression, western blot; format: in vivo, mice; settings: B2 5 mg/kg + PTZ 85 mg/kg, 2 h, PTZ alone 8 times
Protocol: Mice were injected with either B2 (5 mg/kg) or vehicle 20 min before administration of PTZ (85 mg/kg). Two hours later, mice were either anesthetized for c-Fos analysis using immunohistochemistry or decapitated or western blotting.
Mice were decapitated and the hippocampus was quickly dissected on ice. The hippocampus was then homogenized in 20 volumes of cell lysis buffer. The homogenates were incubated on ice for 15 min and centrifuged at 12000×g for 5 min at 4°C. The supernatant containing the crude nuclear extract was collected and the protein content estimated using a Bradford assay. Protein samples […] were electrophoresed in 10% SDS-PAGE at 150 V for 3 h. The samples were then electroblotted onto nitrocellulose membranes at 20 V. The membranes were blocked using 5% dry non-fat milk in 0.1% TBST solution, and incubated overnight on a shaker with anti-c-Fos rabbit antibody (SC-52g) diluted 1∶800 (Santa Cruz Biotechnology). On the following day, the blots were washed using 0.1% TBST solution and incubated for 2 h with anti-rabbit peroxidase-conjugated secondary antibody. The blots were then washed using 0.1% TBST solution. After adding super ECL plus solution, the protein bands were detected using ECL (Fuji Digital Science), as described by the manufacturer. The optical density of the intensity of the bands was measured using Gel Pro Analyzer (version 4.0).

## COc1cc(CNc2ncnc3c2ncn3[C@@H]2O[C@H](CO)[C@@H](O)[C@H]2O)ccc1O [B2, N^6-(3-methoxyl-4-hydroxybenzyl) adenine riboside]
PTZ-induced seizures; B2 1.25 mg/kg i.p.
  seizure occurrence: 70%
  latency to seizure onset prolonged by: 43%
  number of seizures reduced by: 39%
PTZ-induced seizures; B2 5 mg/kg i.p.
  seizure occurrence: 30%
  latency to seizure onset prolonged by: 89%
  number of seizures reduced by: 70%
PTZ-induced seizures; B2 20 mg/kg i.p.
  seizure occurrence: 50%
  latency to seizure onset prolonged by: 93%
  number of seizures reduced by: 62%
A1 adenosine receptor
  Ki: 420 nM
[1]
  EC50: 180 nM
[2]
  c-Fos expression in the hippocampus, times larger than vehicle control group: 1.5 times

Source: paper PMC3692431, “Anticonvulsant Activity of B2, an Adenosine Analog, on Chemical Convulsant-Induced Seizures” (PLoS ONE, 2013)
